Read-outs that look alike come from different tables or passages of the source.
Legend:
[1] = test system: cirrhotic rats; test: Renal responses in rats with liver cirrhosis induced by common bile duct ligation and sham-operated controls; format: in vivo, rat; settings: i.v. bolus 65 nmol/kg
Procedure: Rats with liver cirrhosis induced by common bile duct ligation develop avid sodium and water retention and ascites within 2-4 weeks. The disturbed sodium and water balance in cirrhotic rats is in agreement with the pivotal clinical findings of edema and ascites in patients with liver cirrhosis. To examine the efficacy of Compound 1 in an experimental model of an edema-forming state, the diuretic response to an acute i.v. bolus injection of Compound 1 (65 nmol/kg) was evaluated in rats with liver cirrhosis induced by common bile duct ligation 4 weeks earlier. Prior to the experiments, rats were instrumented with chronic catheters in the urinary bladder, and in the femoral vein and artery. Renal responses to Compound 1 were compared with responses in sham-operated control rats. […] Relative changes in urine flow rate, sodium and potassium excretion after i.v. administration of 65 nmol/kg in sham-operated control animals are summarized in FIG. 7.
Changes in urine flow rate, free water clearance, fractional sodium excretion and fractional potassium excretion after i.v. administration of 65 nmol/kg in sham-operated control and cirrhotic animals are summarized in FIG. 8.

[2] = test system: conscious Sprague Dawley rats; format: in vivo, rat; as to Behavioral changes: key: 0 indicates a lack of response; (↓) indicates a very weak decrease; ↓ indicates a weak decrease; ↑ indicates a weak increase; ↑↑ indicates a strong increase; as to Food intake: key: 0 indicates a lack of response; (↓) indicates a very weak decrease; ↓ indicates a weak decrease; ↑ indicates a weak increase; ↑↑ indicates a strong increase; as to UNaV: key: 0 indicates a lack of response; (↓) indicates a very weak decrease; ↓ indicates a weak decrease; ↑ indicates a weak increase; ↑↑ indicates a strong increase
Procedure: In the conscious rat model, the animal is chronically instrumented with catheters in the urinary bladder, the femoral artery, and the femoral vein. The animal receives a continuous i.v. infusion with isotonic saline, 50 μl/min. Urine is collected in vials in consequtive urine collection periods of 10 min each. After two control periods, the test compound is administered and fractionated urine collections (10 min periods) are continued for at least two hours. Urinary concentrations of sodium and potassium are determined by flame photometry (Instrumentation Laboratory 943) using caesium as internal standard.
The diuretic effect of the peptide conjugates of the invention has been tested in conscious rats, where Compound 1 elicits a powerful and sustained diuretic response. Cardiovascular and renal responses produced by i.v. infusion of nociceptin (Phoenix Pharmaceuticals) and Compound 1 have been studied in conscious Sprague Dawley rats. The results are shown in FIGS. 2 to 8 wherein HR is heart rate, MAP is mean arterial pressure, V is urine flow rate, UNaV is urinary excretion rate of sodium, RSNA is renal sympathetic nerve activity expressed as % of the control level, Cosm is the osmolar clearance, and CH2O is free water clearance.
Furthermore, the effects of i.v. bolus administration of nociceptin (30 and 100 nmol/kg, Phoenix Pharmaceuticals) and nociceptin-NH2 (30 nmol/kg) on heart rate, arterial pressure and RSNA were studied in groups of 6 conscious Sprague-Dawley rats.
[…] After stabilization of urine flow rate and urinary sodium excretion, urine was collected during a 20-min control period. After this, the i.v. bolus injection was given or the i.v. infusate was switched to a solution of isotonic saline containing Compound 1 (i.v. infusion experiments). From the time of drug administration, experimental urine samples (10-min consecutive periods) were taken for 80 min.
One hour prior to the start of each experiment a food pellet (standard rodent chow) was placed within access to the rat though a hole in the rat holder. The number and time of feeding responses (i.e., times in which the rat began to eat the food pellet) was recorded before, and after drug administration. If a positive feeding response was observed, the pellet was removed from the restrainer to prevent feeding-induced alterations in heart rate and/or mean arterial pressure. At 10-min intervals, the food pellet was presented to the rat to determine the duration of the feeding response.

[3] = cirrhotic and sham-operated rats
[4] = I.v. bolus injection 30 nmol/kg
[5] = I.v. infusion 0.1 nmol/kg/min (n = 6)
[6] = I.v. infusion 1.0 nmol/kg/min (n = 6)
[7] = I.v. infusion 10 nmol/kg/min (n = 6)
[8] = i.v. infusion 1 and 0.1 nmol/kg/min, FIG. 3

Ac-RYYRWKKKKKKK-NH2 [Compound 1, Ac-RYYRWKKKKKKK-NH2]
renal responses, cirrhotic versus control rats [1]: renal responses were similar in cirrhotic and control rats | fractional excretion of sodium and potassium ([1]; FIG. 8): decrease in fractional excretion of sodium and potassium | urine flow rate ([1]; FIG. 8): marked increase in urine flow rate | glomerular filtration rate [1, 3]: absence of changes in the glomerular filtration rate | urinary excretion of sodium and potassium [1, 3]: decrease in urinary excretion of sodium and potassium | Δ Blood Pressure (%) ([2]; I.v. bolus 10 nmol/kg (n = 6)): −4 ± 1% | Δ K excretion (%) ([2]; I.v. bolus 10 nmol/kg (n = 6)): −35 ± 4% | Δ Na excretion (%) ([2]; I.v. bolus 10 nmol/kg (n = 6)): −44 ± 3% | Δ Urine Flow (%) ([2]; I.v. bolus 10 nmol/kg (n = 6)): +83 ± 42% | Δ Blood Pressure (%) ([2]; I.v. bolus 30 nmol/kg (n = 4)): −8 ± 2% | Δ K excretion (%) ([2]; I.v. bolus 30 nmol/kg (n = 4)): −20 ± 7% | Δ Na excretion (%) ([2]; I.v. bolus 30 nmol/kg (n = 4)): −51 ± 7% | Δ Urine Flow (%) ([2]; I.v. bolus 30 nmol/kg (n = 4)): +207 ± 11% | Δ Blood Pressure (%) ([2]; I.v. bolus 100 nmol/kg (n = 6)): −12 ± 2% | Δ K excretion (%) ([2]; I.v. bolus 100 nmol/kg (n = 6)): −52 ± 5% | Δ Na excretion (%) ([2]; I.v. bolus 100 nmol/kg (n = 6)): −70 ± 2% | Δ Urine Flow (%) ([2]; I.v. bolus 100 nmol/kg (n = 6)): +249 ± 60% | Δ Blood Pressure (%) ([2]; I.v. bolus 300 nmol/kg (n = 4)): −15 ± 3% | Δ K excretion (%) ([2]; I.v. bolus 300 nmol/kg (n = 4)): −79 ± 6% | Δ Na excretion (%) ([2]; I.v. bolus 300 nmol/kg (n = 4)): −85 ± 6% | Δ Urine Flow (%) ([2]; I.v. bolus 300 nmol/kg (n = 4)): +127 ± 47% | Behavioral changes [2, 4]: 0 | Food intake [2, 4]: 0 | HR [2, 4]: 0 | MAP [2, 4]: 0 | Behavioral changes ([2]; I.v. infusion 0.1 nmol/kg/min): 0 | Food intake ([2]; I.v. infusion 0.1 nmol/kg/min): 0 | HR ([2]; I.v. infusion 0.1 nmol/kg/min): 0 | UNaV ([2]; I.v. infusion 0.1 nmol/kg/min): 0 | Δ Blood Pressure (%) [2, 5]: −5 ± 4% | Δ K excretion (%) [2, 5]: −16 ± 6% | Δ Na excretion (%) [2, 5]: −5 ± 3% | Δ Urine Flow (%) [2, 5]: +99 ± 21% | Behavioral changes ([2]; I.v. infusion 1.0 nmol/kg/min): 0 | Food intake ([2]; I.v. infusion 1.0 nmol/kg/min): 0 | HR ([2]; I.v. infusion 1.0 nmol/kg/min): 0 | Δ Blood Pressure (%) [2, 6]: −10 ± 2% | Δ K excretion (%) [2, 6]: −51 ± 9% | Δ Na excretion (%) [2, 6]: −64 ± 7% | Δ Urine Flow (%) [2, 6]: 210 ± 51% | Δ Blood Pressure (%) [2, 7]: −15 ± 3% | Δ K excretion (%) [2, 7]: −68 ± 15% | Δ Na excretion (%) [2, 7]: −79 ± 6% | Δ Urine Flow (%) [2, 7]: 160 ± 68% | bradycardia and hypotension to an i.v. bolus injection of nociceptin ([2]; after 120 min of i.v. infusion 1 nmol/kg/min, n=6): completely blocked | water diuretic response ([2]; continuous i.v. infusion 1 and 10 nmol/kg/min): selective water diuretic response | heart rate, arterial pressure and RSNA ([2]; i.v. bolus 30 nmol/kg): did not produce any changes in heart rate, blood pressure or RSNA | stimulation of appetite or behavioral changes ([2]; i.v. bolus 30 nmol/kg): do not show any signs of stimulation of appetite or behavioral changes | diuretic (V) and antinatriuretic (UNaV) response ([2]; i.v. bolus 30 nmol/kg, data not shown): marked diuretic (V) and antinatriuretic (UNaV) response | appetite, sedation, behavioral changes ([2]; i.v. infusion 1 and 0.1 nmol/kg/min): no signs of increased appetite, sedation, or behavioral changes | HR response [2, 8]: little effect on HR | MAP response [2, 8]: slight, but significant reduction in MAP | diuretic (V) and antinatriuretic (UNaV) responses [2, 8]: significant diuretic (V μl/min) and antinatriuretic responses | fold more potent than nociceptin in producing similar magnitude diuretic and antinatriuretic responses ([2]; i.v. infusion, FIGS. 5 and 6): approximately 10 fold | duration of the diuretic effect ([2]; i.v. infusion, compared with nociceptin): tended to persist for a greater duration than that of i.v. nociceptin infusion
